TGI data for 4 compounds are collected here from PubChem BioAssay (NCI).

What all share (test): NCI tumour cell line growth inhibition, 48 h
Assay [1] concerns KM12 colon.
Assay [2] concerns SK-MEL-5 melanoma.
In assay [3] the test system is ACHN renal.
Assay [4] deals with SF-295 CNS.
The test system of assay [5] is HOP-62 NSCLC.
The test system of assay [6] is HL-60(TB) leukemia.
Assay [7] deals with EKVX NSCLC.
Assay [8] deals with NCI-H460 lung.
For assay [9], the system named is MDA-MB-435.
In assay [10] the test system is HT29 colon.

The structures appear in SMILES notation.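 Step 1: Grow cells in 96-well plates. Step 2: Expose to compound for 48 hours at 5 concentrations. Step 3: Interpolate endpoints linearly; if unreached, use highest concentration. Definition used: TGI = concentration required for complete inhibition of growth.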 Where only a bound is given, the exact number is not on record here.

Consider `COc1ccc2nc(NC(=O)/C(C#N)=C/c3ccccc3)sc2c1`, for which the TGI was over 73.3 µM in assay [1]; over 73.6 µM in assay [2]; over 100 µM in assay [3]; over 100 µM in [4]; over 100 µM in [5]; 36.7 µM in assay [6]. Further, the TGI in assay [7] was over 100 µM; in [8] it was over 100 µM; in [9], over 100 µM; in [10], over 96.1 µM.
As to `COc1ccc(N=Nc2c(-c3c(OC)cc4occc4c3OC)[nH]c(=O)c(C#N)c2C)cc1`, the TGI in assay [1], in assay [2], in assay [3], in [4], in [5] and in assay [6] was over 100 µM each time. Further, the TGI in [7], in assay [8], in assay [9] and in assay [10] was over 100 µM each time.
Regarding `COc1ccc2ccc3oc(=O)c(C)cc3c2c1`, the TGI in assay [1], in assay [2], in assay [3], in [4], in [5] and in [6] was over 100 µM each time. Further, the TGI in assay [7], in assay [8], in assay [9] and in assay [10] was over 100 µM in each case.
On to `CN(C)CCN(c1ccccn1)c1ccccn1`, for which the TGI in [1], in assay [2], in [3], in assay [4], in assay [5] and in assay [6] was over 100 µM in each case. In addition, the TGI in assay [7], in [8], in assay [9] and in assay [10] was over 100 µM in each case.
